Assay results as given in ChEMBL document CHEMBL5442379, “ASAP - SARS-CoV-2 nsp3 macrodomain single point” (2024).

Biological target: Replicase polyprotein 1ab (Severe acute respiratory syndrome coronavirus 2) (UniProt P0DTD1)
Description: Functional biochemical assay to identify treatments for viral infectious disease that targets SARS-COV-2 nsp3 macrodomain, whereby the mechanism of action displaces an ADP-Ribose modified peptide from the binding site. Utilizing a time-resolved fluorescence method to measure binding by reading the emitted fluorescence intensity in two wavelengths.

CN(Cc1cn(C)nn1)C(=O)c1cnn2ccc(C3CCN(C(=O)c4ccccc4)CC3)cc12
inhibition (Concentration 49.75 uM, Number of replicates 2.0, Standard deviation 4.768 %): 2.17%
inhibition (Concentration 99.5 uM, Number of replicates 2.0, Standard deviation 1.859 %): 1.34%

Cc1cc(N)ncc1C(=O)N1CCC(c2ccn3ncc(C(=O)N4CCCCC4)c3c2)CC1
inhibition (Concentration 49.75 uM, Number of replicates 2.0, Standard deviation 0.411 %): 19.5%
inhibition (Concentration 99.5 uM, Number of replicates 2.0, Standard deviation 3.667 %): 32.6%

Cc1nc(Nc2cnn(CCO)c2)c2cc[nH]c2n1
inhibition (Concentration 50.0 uM, Number of replicates 2.0, Standard deviation 4.582 %): -6.15%

O=C(OCc1cccc(Cl)n1)c1ncnc2[nH]ccc12
inhibition (Concentration 50.0 uM, Number of replicates 2.0, Standard deviation 4.164 %): 11.4%

O=C(c1ccnnc1O)N1CCC(c2ccn3ncc(C(=O)N4CCCCC4)c3c2)CC1
inhibition (Concentration 49.75 uM, Number of replicates 2.0, Standard deviation 0.647 %): -7.59%
inhibition (Concentration 99.5 uM, Number of replicates 2.0, Standard deviation 0.871 %): 10.2%

NC1(C(=O)N(CCC(=O)N2CCNCC2)Cc2cccc(Cl)c2)CC(F)(F)C1
inhibition (Concentration 49.75 uM, Number of replicates 2.0, Standard deviation 0.286 %): -3.48%
inhibition (Concentration 99.5 uM, Number of replicates 2.0, Standard deviation 3.805 %): -1.17%

COc1cc(Nc2ncnc3[nH]ccc23)ccc1NC(C)=O
inhibition (Concentration 50.0 uM, Number of replicates 2.0, Standard deviation 12.002 %): -7.76%

NS(=O)(=O)N1CCCN(c2ncnc3[nH]c(I)cc23)CC1
inhibition (Concentration 50.0 uM, Number of replicates 2.0, Standard deviation 1.583 %): 2.29%

CC(C)[C@H]1CN(c2ncnc3[nH]ccc23)[C@H]1C(C)C
inhibition (Concentration 49.75 uM, Number of replicates 2.0, Standard deviation 1.709 %): 0.348%
inhibition (Concentration 99.5 uM, Number of replicates 2.0, Standard deviation 1.351 %): -2.2%

O=C(Nc1ccccc1)Nc1ccc(C(=O)NCc2ccnc(F)c2)cc1
inhibition (Concentration 49.75 uM, Number of replicates 2.0, Standard deviation 0.77 %): -0.36%
inhibition (Concentration 99.5 uM, Number of replicates 2.0, Standard deviation 1.377 %): 4.92%

CN(c1ncnc2[nH]ncc12)[C@@H](CCO)c1ccccc1
inhibition (Concentration 49.75 uM, Number of replicates 2.0, Standard deviation 10.225 %): 8.86%
inhibition (Concentration 99.5 uM, Number of replicates 2.0, Standard deviation 3.705 %): 5.14%

Cc1ccc(O)c(CNc2ncnc3[nH]cnc23)n1
inhibition (Concentration 50.0 uM, Number of replicates 2.0, Standard deviation 1.123 %): 0.262%
inhibition (Concentration 100.0 uM, Number of replicates 2.0, Standard deviation 2.0 %): 6.28%

CC(C)n1ncnc1CNc1cc2c(=O)nc[nH]c2cn1
inhibition (Concentration 50.0 uM, Number of replicates 2.0, Standard deviation 0.347 %): -1.49%

c1ccc(Cn2ncc3c2CCC[C@@H]3Nc2ncnc3[nH]ccc23)cc1
inhibition (Concentration 50.0 uM, Number of replicates 2.0, Standard deviation 3.356 %): 5.85%

O=C(NCc1cn[nH]c1)c1cnn2ccc(C3CCN(C(=O)c4ccccc4)CC3)cc12
inhibition (Concentration 49.75 uM, Number of replicates 2.0, Standard deviation 0.103 %): -2.37%
inhibition (Concentration 99.5 uM, Number of replicates 2.0, Standard deviation 3.225 %): -4.5%

Cc1nn(Cc2ccccc2)c(C)c1CNc1ncnc2[nH]ncc12
inhibition (Concentration 50.0 uM, Number of replicates 2.0, Standard deviation 2.858 %): -1.75%

O=C(NCc1ncccn1)c1cnn2ccc(C3CCN(C(=O)c4ccccc4)CC3)cc12
inhibition (Concentration 49.75 uM, Number of replicates 2.0, Standard deviation 2.653 %): -0.074%
inhibition (Concentration 99.5 uM, Number of replicates 2.0, Standard deviation 0.514 %): -6.66%

O=C(Nc1ccc(C(=O)NCc2c(C(=O)O)[nH]c3ccccc23)cc1)NC1CC1
inhibition (Concentration 50.0 uM, Number of replicates 2.0, Standard deviation 1.193 %): 86.2%

O=C(Nc1ccccc1)Nc1ccc(C(=O)NC2c3cccc(O)c3CC2C(=O)O)cc1 (configuration not stated)
inhibition (Concentration 50.0 uM, Number of replicates 2.0, Standard deviation 0.256 %): 99.9%

O=C(c1cncc(O)n1)N1CCC(c2ccn3ncc(C(=O)N4CCCCC4)c3c2)CC1
inhibition (Concentration 49.75 uM, Number of replicates 2.0, Standard deviation 0.648 %): 26.6%
inhibition (Concentration 99.5 uM, Number of replicates 2.0, Standard deviation 1.31 %): 41.9%

O=C(Nc1cnc2[nH]ncc2c1)c1ccccc1CN1CCOCC1
inhibition (Concentration 50.0 uM, Number of replicates 2.0, Standard deviation 2.919 %): -3.24%

O=C(c1cccnc1O)N1CCC(c2ccn3ncc(C(=O)N4CCCCC4)c3c2)CC1
inhibition (Concentration 49.75 uM, Number of replicates 2.0, Standard deviation 3.415 %): -7.04%
inhibition (Concentration 99.5 uM, Number of replicates 2.0, Standard deviation 3.017 %): -3.94%

O=C(c1nnn[nH]1)N1CCC(c2ccn3ncc(C(=O)N4CCCCC4)c3c2)CC1
inhibition (Concentration 49.75 uM, Number of replicates 2.0, Standard deviation 0.79 %): 55.1%
inhibition (Concentration 99.5 uM, Number of replicates 2.0, Standard deviation 0.232 %): 69%

COc1ccccc1C[C@@H](Nc1ncnc2[nH]ccc12)C(C)C
inhibition (Concentration 49.75 uM, Number of replicates 2.0, Standard deviation 1.888 %): 31.7%
inhibition (Concentration 99.5 uM, Number of replicates 2.0, Standard deviation 1.108 %): 48.5%

Cn1cc([C@@H](Nc2ncnc3[nH]ccc23)c2ccccc2)cn1
inhibition (Concentration 49.75 uM, Number of replicates 2.0, Standard deviation 1.638 %): 20%
inhibition (Concentration 99.5 uM, Number of replicates 2.0, Standard deviation 1.226 %): 39.3%

CC(C)[C@H]1N(c2ncnc3[nH]ccc23)CC12CCOCC2
inhibition (Concentration 49.75 uM, Number of replicates 2.0, Standard deviation 0.024 %): 27.6%
inhibition (Concentration 99.5 uM, Number of replicates 2.0, Standard deviation 0.45 %): 48%

O=C(N[C@@H]1CCCNC1=O)c1cnn2ccc(C3CCN(C(=O)c4ccccc4)CC3)cc12
inhibition (Concentration 49.75 uM, Number of replicates 2.0, Standard deviation 2.776 %): -3.16%
inhibition (Concentration 99.5 uM, Number of replicates 2.0, Standard deviation 2.396 %): -4.87%

O=S(=O)(NC[C@H]1CCOC1)c1cn2c(n1)CCCC2
inhibition (Concentration 50.0 uM, Number of replicates 2.0, Standard deviation 7.062 %): -3.2%

CC(C)(CCNc1ncnc2[nH]ccc12)S(C)(=O)=O
inhibition (Concentration 50.0 uM, Number of replicates 2.0, Standard deviation 3.874 %): 0.75%

NC(=O)c1ncccc1C(=O)N1CCC(c2ccn3ncc(C(=O)N4CCCCC4)c3c2)CC1
inhibition (Concentration 49.75 uM, Number of replicates 2.0, Standard deviation 4.804 %): 20%
inhibition (Concentration 99.5 uM, Number of replicates 2.0, Standard deviation 1.17 %): 36%

O=C(Nc1cnc2[nH]ncc2c1)c1cccc(-c2noc(C(F)(F)F)n2)c1
inhibition (Concentration 50.0 uM, Number of replicates 2.0, Standard deviation 7.077 %): -0.675%
inhibition (Concentration 100.0 uM, Number of replicates 2.0, Standard deviation 3.401 %): -1.62%

O=C(Nc1ccccc1)Nc1ccc(C(=O)N2CCc3ccncc32)cc1
inhibition (Concentration 49.75 uM, Number of replicates 2.0, Standard deviation 6.741 %): -4.3%
inhibition (Concentration 99.5 uM, Number of replicates 2.0, Standard deviation 1.961 %): 0.234%

O=C(N[C@@H]1COCC[C@H]1O)c1cnn2ccc(C3CCN(C(=O)c4ccccc4)CC3)cc12
inhibition (Concentration 49.75 uM, Number of replicates 2.0, Standard deviation 1.335 %): -5.01%
inhibition (Concentration 99.5 uM, Number of replicates 2.0, Standard deviation 2.833 %): -4.48%

O=C(Nc1cnc2[nH]ncc2c1)c1noc2c1CCCC2
inhibition (Concentration 50.0 uM, Number of replicates 2.0, Standard deviation 0.458 %): -1.4%

CCn1cc(CNc2nc3[nH]cnc3c(=O)[nH]2)nn1
inhibition (Concentration 50.0 uM, Number of replicates 2.0, Standard deviation 3.758 %): -0.991%

CC(C)[C@@H](CCN(C)C(=O)c1cc2c(s1)CC[C@H](C)C2)Nc1ncnc2[nH]ccc12
inhibition (Concentration 49.75 uM, Number of replicates 2.0, Standard deviation 6.617 %): -9.68%

Cc1cccc2oc(CCNc3ncnc4[nH]ccc34)nc12
inhibition (Concentration 50.0 uM, Number of replicates 2.0, Standard deviation 6.123 %): -3.26%

CN1CCOc2cccc(NC(=O)Nc3cnc4[nH]ncc4c3)c21
inhibition (Concentration 50.0 uM, Number of replicates 2.0, Standard deviation 1.985 %): -6.54%

O=C(Nc1cnn(C2CCNCC2)c1)c1ncnc2[nH]ccc12
inhibition (Concentration 50.0 uM, Number of replicates 2.0, Standard deviation 5.148 %): -1.9%

CS(=O)(=O)N1CC[C@@H](COC(=O)c2ncnc3[nH]ccc23)C1
inhibition (Concentration 50.0 uM, Number of replicates 2.0, Standard deviation 2.196 %): 0.187%

Cc1noc(CCCNC(=O)c2ncnc3[nH]ccc23)n1
inhibition (Concentration 50.0 uM, Number of replicates 2.0, Standard deviation 1.028 %): -5.13%

COCc1cc(CC(=O)Nc2ncnc3[nH]cnc23)no1
inhibition (Concentration 50.0 uM, Number of replicates 2.0, Standard deviation 0.215 %): 2.97%

C#Cc1cccc(NC(=O)CN(C)c2ncnc3[nH]ccc23)c1
inhibition (Concentration 50.0 uM, Number of replicates 2.0, Standard deviation 4.462 %): 4.4%

Cn1ncc2c(NCc3ncccc3O)ncnc21
inhibition (Concentration 50.0 uM, Number of replicates 2.0, Standard deviation 16.275 %): 3.89%

Cc1c[nH]nc1C(=O)N1CCC(c2ccn3ncc(C(=O)N4CCCCC4)c3c2)CC1
inhibition (Concentration 49.75 uM, Number of replicates 2.0, Standard deviation 6.018 %): 8.47%
inhibition (Concentration 99.5 uM, Number of replicates 2.0, Standard deviation 4.753 %): 27.4%

c1nc(N2CCC[C@@H](c3nc4c(s3)CCC4)C2)c2c[nH]nc2n1
inhibition (Concentration 50.0 uM, Number of replicates 2.0, Standard deviation 1.131 %): 3.83%

CCn1cc(CNc2cc3c(O)ncnc3cn2)nn1
inhibition (Concentration 50.0 uM, Number of replicates 2.0, Standard deviation 1.563 %): 1.67%

C[C@@H]1[C@H](O)CCCN1C(=O)c1ccc(NC(=O)Nc2ccccc2)cc1
inhibition (Concentration 49.75 uM, Number of replicates 2.0, Standard deviation 0.457 %): -2.96%
inhibition (Concentration 99.5 uM, Number of replicates 2.0, Standard deviation 5.068 %): -2.72%

Cn1c(C(=O)NCCn2cccc2)cc2c(=O)n3ccccc3nc21
inhibition (Concentration 50.0 uM, Number of replicates 2.0, Standard deviation 2.478 %): 2.26%

Cc1ccc(NC(=O)c2cnn3ccc(C4CCN(C(=O)c5ccccc5)CC4)cc23)cc1C(=O)O
inhibition (Concentration 49.75 uM, Number of replicates 2.0, Standard deviation 0.305 %): -1.05%
inhibition (Concentration 99.5 uM, Number of replicates 2.0, Standard deviation 2.043 %): -0.624%

Cc1cc(C(=O)N2CCC(c3ccn4ncc(C(=O)N5CCCCC5)c4c3)CC2)[nH]n1
inhibition (Concentration 49.75 uM, Number of replicates 2.0, Standard deviation 4.639 %): 16.6%
inhibition (Concentration 99.5 uM, Number of replicates 2.0, Standard deviation 3.947 %): 31.6%

CC[C@@H]1C[C@@H](C(=O)Nc2ncnc3[nH]c(C)c(C)c23)CCO1
inhibition (Concentration 50.0 uM, Number of replicates 2.0, Standard deviation 1.684 %): 12.1%
